One molecule from paper PMC6010070, “Antinociceptive potency of a fluorinated cyclopeptide Dmt-c[D-Lys-Phe-p-CF3-Phe-Asp]NH2” (Journal of Enzyme Inhibition and Medicinal Chemistry, 2018) can be followed below.

How the values of series [1] were obtained: Parallel Artificial Membrane Permeability Assay (PAMPA) was performed using Multiscreen Filter Plate and Multiscreen Transport Receiver Plate (Merck Millipore, Warsaw, Poland). Tested, as well as reference compounds, were dissolved in 0.1 M PBS buffer containing 20% of ethanol, to the final concentration of 200 µM. A 300 µl aliquots of 0.1 M PBS solution (pH = 7.4) was dispensed into the wells of the […]. Then 1% n-dodecane solution of the brain polar lipid extract (Avanti Polar Lipids; Sigma Aldrich, Poznan, Poland) was prepared to investigate the blood–brain barrier (BBB) permeability. Aliquots of the obtained lipid solutions (5 µl) were dispensed on the membranes of wells of the donor plate and left to dry. […] A complete system, consisting of the receiver plate with inserted donor plate, was incubated at room temperature for 4 h, shaking at 40 g, to guarantee good solvent mixing.
The ability of the tested compounds to permeate the artificial membranes was classified according to the literature[33] as:
Artificial membrane permeability was assessed in the PAMPA assay and the permeability coefficient (Pe) was calculated from the following equation: Pe=C×-ln1-×Ca/Cr where C=Vd ×Va /(Vd+Va)×p×t
Membrane retention was analysed using mass balance between a compound left in the donor and acceptor compartments and calculated using the following equation: MB=Ca×Va+(Cd×Vd)/Cinitial×Vd where

The subject of series [2] is Male balb/c mice. Briefly: Semi-chronic model of TNBS-induced colitis (macroscopic damage, MPO activity). In kind it is in vivo. How it is done:
(§1) Male balb/c mice (Animal Facility of Nofer Institute of Occupational Medicine, Lodz, Poland) weighing 22–25 g were used to determine the anti-inflammatory and anti-nociceptive activity of cyclopeptides after i.p. administration. All procedures and protocols used in this study were approved by the Local Ethical Committee for Animal Research (protocol number: 20/ŁB708/2014, 26 May 2014). The study was carried out in accordance with the recommendations described in the Guide for the Care and Use of Laboratory Animals of the Medical University of Lodz, Poland. All experimental procedures were performed in accordance with the current guidelines for the care of laboratory animals (including the use of the 3Rs procedures) and in accordance with the ARRIVE guidelines.
(§2) The experimental colitis was induced by intracolonic (i.c.) administration of 2,4,6-trinitrobenzenesulfonic acid (TNBS). Mice were anesthetized with isoflurane (Aerrane, Baxter, Deerfield, IL) and TNBS at the dose of 4 mg per mouse (dissolved in 30% EtOH in saline) in the final volume of 150 µl, was injected into the colon through a catheter inserted 3 cm proximally from the anus. Mice were then maintained in an inclined position for 1 min to ensure the proper distribution of the inductor in the colon. Next, recovery was allowed with food and water supplied. Control animals received vehicle alone (30% ethanol in saline; TNBS replaced with equivolume water).
In the semi-chronic model, the curative potential of F-81 was tested. TNBS was administered on day 0 and from day 3 to day 6 the F-81 treatment (1 mg/kg in saline, 100 µl, i.p) was performed. On day 7, mice were sacrificed and the evaluation of colonic damage was performed.
(§3) To perform the macroscopic damage score, the colon was removed immediately after euthanasia, opened longitudinally, rinsed with phosphate buffered saline (PBS), and examined using an established semiquantitative scoring system by adding individual scores for ulcer, colonic shortening, wall thickness, and the presence of haemorrhage, faecal blood, and diarrhoea, as described before. For scoring ulcer and colonic shortening the following scale was used: ulcer: 0.5 points for each 0.5 cm; shortening of the colon: 1 point for >15%, 2 points for >25% (based on a mean length of the colon in untreated mice). The wall thickness was measured in millimetres, a thickness of n mm corresponded to n scoring points. The presence of haemorrhage, faecal blood, or diarrhoea increased the score by 1 point for each additional feature.
The colon fragments (20–30 mg) were gently isolated from mice after total macroscopic damage score assessment, immediately washed with PBS, and homogenized in hexadecyltrimethylammonium bromide (HTAB) buffer (0.5% HTAB in 50 mM potassium phosphate buffer, pH 6.0; 50 mg of tissue/ml) using Ika Ultra Turrax Disperser T25 Digital 2 (Sigma Aldrich, Poznan, Poland). The homogenates were centrifuged (20 min, 13,200g, 4 °C) and the supernatants were transferred to the new test tubes. […] The absorbance was measured at 450 nm after 30 and 60 s (iMARK Microplate Reader, Biorad, UK). […]
(§4) The MPO activity was expressed in units/g of a wet tissue. One unit is determined as a quantity of enzyme able to convert 1 µmol of H2O2 to water in 1 min at room temperature. MPO activity units were calculated from the standard curve using purified peroxidase enzyme.

The subject of series [3] is Male balb/c mice. As to the kind of experiment: Mustard oil induced abdominal pain in mice with acute TNBS-induced colitis. In kind it is in vivo. The settings on record: mustard oil i.c., 1 mg/kg i.p., counted for 20 min, control group 29.28 ± 2.52. How it is done: as §1
To assess the anti-nociceptive effect of F-81 in mice with acute colitis, intestinal inflammation was induced by TNBS instillation three days prior to the experiment. Abdominal pain was induced in inflamed mice by the i.c. injection of 1% mustard oil (MO, allyl isothiocyanate) in 70% EtOH in saline. Mice were separated into clear plastic boxes (20 × 20 × 15 cm) and allowed a 5 min recovery after MO administration. Spontaneous behaviours (licking and stretching the abdomen, squashing of lower abdomen against the floor, and abdominal retraction) were observed and counted for 20 min.

Series [4] deals with Male balb/c mice. Briefly: Prevention mouse model of TNBS-induced colitis (macroscopic damage, MPO activity). In kind it is in vivo. Particulars: 1 mg/kg i.p. once daily. How it is done:
as §1, §2
In the prevention mouse model of colitis, F-81 was injected intraperitoneally (i.p.) at the dose of 1 mg/kg in saline, in the volume of 100 µl, once daily, for 3 days, 15 min prior to TNBS administration. Mice were weighted daily and monitored for clinical symptoms of colitis, including diarrhoea and bloody stool. On day 4, mice were sacrificed by rapid cervical dislocation and the macroscopic damage score was assessed.
as §3
The colon fragments (20–30 mg) were gently isolated from mice after total macroscopic damage score assessment, immediately washed with PBS, and homogenized in hexadecyltrimethylammonium bromide (HTAB) buffer (0.5% HTAB in 50 mM potassium phosphate buffer, pH 6.0; 50 mg of tissue/ml) using Ika Ultra Turrax Disperser T25 Digital 2 (Sigma Aldrich, Poznan, Poland). The homogenates were centrifuged (20 min, 13,200g, 4 °C) and the supernatants were transferred to the new test tubes. Then, 7 µl portions of supernatants were added on a 96-well plate, followed by 200 µl of 50 mM potassium phosphate buffer (pH = 6.0), containing 0.167 mg/ml of O-dianisidine hydrochloride and 0.05 µl of 1% H2O2. The absorbance was measured at 450 nm after 30 and 60 s (iMARK Microplate Reader, Biorad, UK). All measurements were done in triplicates.
as §4

Bridge positions count the residues as written; N and C are the ends. Square brackets hold non-standard residues; d marks the D form. Peptide text beside a SMILES is read from it. Phe(4-CF3) = N[C@@H](Cc1ccc(C(F)(F)F)cc1)C(=O)O; Dmt = Cc1cc(O)cc(C)c1C[C@H](N)C(=O)O

`Cc1cc(O)cc(C)c1C[C@H](N)C(=O)N[C@@H]1CCCCNC(=O)C[C@@H](C(N)=O)NC(=O)[C@H](Cc2ccc(C(F)(F)F)cc2)NC(=O)[C@H](Cc2ccccc2)NC1=O` [Peptide F-81, Dmt-c[D-Lys-Phe-p-CF3-Phe-Asp]NH2] (H-[Dmt][dK]F[Phe(4-CF3)]D-NH2; lactam 2-5 (inferred)): the “BBB permeability Pe ± SD” value in series [1] (PAMPA, brain polar lipid extract, 200 µM, 4 h, room temperature, pH 7.4) was not above 0.58. In addition, the “Classification (BBB permeation)” value in series [1] (PAMPA-BBB, classified by Pe) is “Low permeation (Pe < 2.0 – low permeation)”. In addition, the “Mean (%) Mass balance ± SD” value in series [1] (PAMPA-BBB, membrane retention) was found to be 95.75 ± 1.43%. Further, the “Colon thickness, width, or length versus TNBS-treated group” value with Male balb/c mice [2] (1 mg/kg i.p.) was “No differences”. The Macroscopic damage score in the series on Male balb/c mice [2] (1 mg/kg i.p. day 3 to day 6, TNBS group 4.15 ± 0.54) amounted to 2.18 ± 0.40; in the series on Male balb/c mice [4] (3 days, TNBS group 5.83), 4.07. In addition, the Ulcer score in the series on Male balb/c mice [2] (1 mg/kg i.p., TNBS group 1.30 ± 0.12) was found to be 0.92 ± 0.83; in the series with Male balb/c mice [4] (TNBS group 2.06 ± 0.22) it was 1.43 ± 0.17. In addition, the Inflammation area in the series with Male balb/c mice [2] (1 mg/kg i.p., TNBS group 18.49 ± 3.95) stood at 12.23 ± 1.56; in the series on Male balb/c mice [4] (TNBS group 24.42 ± 2.92), 19.56 ± 2.16. The MPO activity with Male balb/c mice [2] (colon tissue, 1 mg/kg i.p., TNBS group 8.26 ± 0.15) is on record as 7.88 ± 0.24 units/g of a wet tissue; with Male balb/c mice [4] (colon tissue, TNBS group 11.82 ± 1.72), 3.65 ± 0.87 units/g of a wet tissue. The “Number of spontaneous pain behaviours” value in the series with Male balb/c mice [3] stood at 6.36 ± 1.98. Besides, the Intestinal wall thickness in the series with Male balb/c mice [4] (TNBS group 1.08 ± 0.12, no difference) is 0.95 ± 0.07 mm. The Colon width in the series with Male balb/c mice [4] (TNBS group 7.91 ± 0.23) was determined as 6.09 ± 0.53. Also, the Colon length in the series on Male balb/c mice [4] (TNBS group 8.01 ± 0.39, no difference) amounted to 8.23 ± 0.24.
